Measurements: patent US6191135A, “Neurokinin antagonists” (Boehringer Ingelheim KG, priority 1994, dated 2001)

molecular target: T1, NK1 -receptor (substance P-receptor) (Homo sapiens, UniProt P25103); test: NK1-receptor affinity: displacement of 125I labelled substance P on intact human lymphoblastoma cells (IM-9); assay type: binding; details: intact human lymphoblastoma cells (IM-9) expressing NK1-receptors, read-out: Ki
T1 construct: intact human lymphoblastoma cells (IM-9) which express NK1 -receptors; endogenous in cells; host or cells: IM-9 human lymphoblastoma cells
Method: The receptor affinity for the NK1 -receptor (substance P-receptor) was determined on intact human lymphoblastoma cells (IM-9) which express NK1 -receptors, and the displacement of ^125 I labelled substance P was measured.

T1 sequence (P25103 whole entry): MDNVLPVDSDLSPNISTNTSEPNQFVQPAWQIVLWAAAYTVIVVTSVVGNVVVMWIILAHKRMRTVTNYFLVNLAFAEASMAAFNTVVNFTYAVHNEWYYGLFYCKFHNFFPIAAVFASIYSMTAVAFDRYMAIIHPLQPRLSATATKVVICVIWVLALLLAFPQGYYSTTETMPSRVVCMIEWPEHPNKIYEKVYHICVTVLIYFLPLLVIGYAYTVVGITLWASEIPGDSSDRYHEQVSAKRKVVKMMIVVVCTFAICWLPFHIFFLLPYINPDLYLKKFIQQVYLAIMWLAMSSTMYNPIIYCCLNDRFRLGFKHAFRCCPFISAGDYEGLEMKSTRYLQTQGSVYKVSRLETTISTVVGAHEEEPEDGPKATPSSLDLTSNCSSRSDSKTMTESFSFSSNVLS

| Structure (SMILES) | Ki [nM] |
| --- | --- |
| COc1ccccc1C(CNC(=O)Cc1ccccc1C(F)(F)F)N1CCN(C2CCCCC2)CC1 (stereo not shown) [Example 64, N-[2-(2-Methoxyphenyl)-2-(4-cyclohexylpiperazine-1-yl)-ethyl]-2-(2-trifluoromethylphenyl)-acetamide] | 273 |
| COc1ccccc1C(CNCCc1cc(C(F)(F)F)cc(C(F)(F)F)c1)N1CCN(C2CCCCC2)CC1 (stereo not shown) [Example 66, 2-(3,5-Bistrifluoromethylphenyl)-2'-(2-methoxyphenyl)-2'-(4-cyclohexylpiperazine-1-yl)-diethylamine] | 23 |
| COc1ccccc1C(CNC(=O)c1cc(C(F)(F)F)cc(C(F)(F)F)c1)N1CCN(C2CCCCC2)CC1 (stereo not shown) [Example 67, N-[2-(2-Methoxyphenyl)-2-(4-cyclohexylpiperazine-1-yl)-ethyl]-3,5-bistrifluoromethylbenzamide] | 14 |
| COc1ccccc1C(CNC(=O)Cc1cc(C(F)(F)F)cc(C(F)(F)F)c1)N1CCN(C2CCCCCC2)CC1 (stereo not shown) [Example 68, N-[2-(2-Methoxyphenyl)-2-(4-cycloheptylpiperazine-1-yl)-ethyl]-2-(3,5-bistrifluoromethyl-phenyl)-acetamide] | 3 |
| COc1ccccc1C(CNCCc1cc(C(F)(F)F)cc(C(F)(F)F)c1)N1CCN(C2CCCCCC2)CC1 (stereo not shown) [Example 69, 2-(3,5-Bistrifluoromethylphenyl)-2'-(2-methoxyphenyl)-2'-(4-cycloheptylpiperazine-1-yl)-diethylamine] | 16 |
| COc1ccccc1C(CNC(=O)c1cc(C(F)(F)F)cc(C(F)(F)F)c1)N1CCCCC1 (stereo not shown) [Example 75, N-[2-(2-Methoxyphenyl)-2-piperidin-1-yl-ethyl]-3,5-bistrifluoromethylbenzamide] | 700 |
| COc1ccccc1C(CNC(=O)Cc1cc(C(F)(F)F)cc(C(F)(F)F)c1)N1CCCCC1 (stereo not shown) [Example 78, N-[2-(2-Methoxyphenyl)-2-piperidin-1-yl-ethyl]-2-(3,5-bistrifluoromethylphenyl)acetamide] | 250 |
| COc1ccccc1C(CNCCc1cc(C(F)(F)F)cc(C(F)(F)F)c1)N1CCCCC1 (stereo not shown) [Example 79, 2-(3,5-Bistrifluoromethylphenyl)-2'-(2-methoxyphenyl)-2'-piperidine-1-yl-diethylamine] | 46 |
| COc1ccccc1C(CNCc1cc(C(F)(F)F)cc(C(F)(F)F)c1)N1CCCCC1C (stereo not shown) [Example 80, 3,5-Bistrifluoromethylbenzyl-[2-(2-methoxyphenyl)-2-(2-methylpiperidine-1-yl)-ethyl]-amine] | 43 |
| COc1ccccc1C(CNCc1cc(C(F)(F)F)cc(C(F)(F)F)c1)N1CCCC(C)C1 (stereo not shown) [Example 81, 3,5-Bistrifluoromethylbenzyl-[2-(2-methoxyphenyl)-2-(3-methylpiperidine-1-yl)-ethyl]-amine] | 90 |
| COc1ccccc1C(CNCc1cc(C(F)(F)F)cc(C(F)(F)F)c1)N1CCC(C)CC1 (stereo not shown) [Example 82, 3,5-Bistrifluoromethylbenzyl-[2-(2-methoxyphenyl)-2-(4-methylpiperidine-1-yl)-ethyl]-amine] | 52 |
| COc1ccccc1C(CNCc1cc(C(F)(F)F)cc(C(F)(F)F)c1)N1CC(C)CC(C)C1 (stereo not shown) [Example 83, 3,5-Bistrifluoromethylbenzyl-[2-(2-methoxyphenyl)-2-(3,5-dimethylpiperidine-1-yl)-ethyl]-amine] | 209 |
| COc1ccccc1C(CNCc1cc(C(F)(F)F)cc(C(F)(F)F)c1)N1CCC(C2CCCCC2)CC1 (stereo not shown) [Example 89, 3,5-Bistrifluoromethylbenzyl-[2-(2-methoxyphenyl)-2-(4-cyclohexylpiperidine-1-yl)-ethyl]-amine] | 80 |
| COc1ccccc1C(CNCc1cc(C(F)(F)F)cc(C(F)(F)F)c1)N1CCC(N2CCCCC2)CC1 (stereo not shown) [Example 91] | 2 |
| FC(F)(F)c1cc(CNCC(c2ccccc2)N2CCOCC2)cc(C(F)(F)F)c1 (stereo not shown) [Example 96, 3,5-Bistrifluoromethylbenzyl-(2-phenyl-2-morpholine-4-yl-ethyl)-amine] | 185 |
| COc1ccccc1C(CNCc1cc(C(F)(F)F)cc(C(F)(F)F)c1)N1CCC(c2c[nH]c3ccccc23)CC1 (stereo not shown) [Example 97, 3,5-Bistrifluoromethylbenzyl-(2-(2-methoxyphenyl)-2-(4-(3-indolyl)-piperidine-1-yl)-ethyl]-amine] | 300 |
| CN1CCN(C(CNC(=O)Nc2cc(C(F)(F)F)cc(C(F)(F)F)c2)c2ccccc2)CC1 (stereo not shown) [Example 105, N-3,5-Bistrifluoromethylphenyl-N'-[2-phenyl-2-(4-methylpiperazine-1-yl)-ethyl]-urea] | 78 |
| COc1ccccc1C(CNC(=O)Nc1cc(C(F)(F)F)cc(C(F)(F)F)c1)N1CCN(C)CC1 (stereo not shown) [Example 107, N-3,5-Bistrifluoromethylphenyl-N'-[2-(2-methoxyphenyl)-2-(4-methylpiperazin-1-yl)-ethyl]-urea] | 250 |
| CCCN1CCN(C(CNC(=O)Nc2cc(C(F)(F)F)cc(C(F)(F)F)c2)c2ccccc2OC)CC1 (stereo not shown) [Example 108, N-3,5-Bistrifluoromethylphenyl-N'-[2-(2-methoxyphenyl)-2-(4-(1-propyl)piperazine-1-yl)-ethyl]-urea] | 34 |
| COc1ccccc1C(CNC(=O)Nc1cc(C(F)(F)F)cc(C(F)(F)F)c1)N1CCN(C(C)C)CC1 (stereo not shown) [Example 110, N-3,5-Bistrifluoromethylphenyl-N'-[2-(2-methoxyphenyl)-2-(4-(2-propyl)piperazin-1-yl)-ethyl]-urea] | 28 |

Other lines, results leading:

| Ki [nM] | Structure (SMILES) |
| --- | --- |
| 12 | COc1ccccc1C(CNC(=O)Nc1cc(C(F)(F)F)cc(C(F)(F)F)c1)N1CCN(C2CCCC2)CC1 (stereo not shown) [Example 111, N-3,5-Bistrifluoromethylphenyl-N'-[2-(2-methoxyphenyl)-2-(4-cyclopentylpiperazine-1-yl)-ethyl]-urea] |
| 1000 | O=C(NCC(c1ccccc1)N1CCN(C2CCCCC2)CC1)Nc1ccccc1 (stereo not shown) [Example 112, N-Phenyl-N'-[2-phenyl-2-(4-cyclohexylpiperazine-1-yl)-ethyl]-urea] |
| 403 | O=C(NCC(c1ccccc1)N1CCN(C2CCCCC2)CC1)Nc1ccccc1Cl (stereo not shown) [Example 113, N-2-Chlorophenyl-N'-[2-phenyl-2-(4-cyclohexylpiperazine-1-yl)-ethyl]-urea] |
| 490 | COc1ccccc1NC(=O)NCC(c1ccccc1)N1CCN(C2CCCCC2)CC1 (stereo not shown) [Example 114, N-2-Methoxyphenyl-N'-[2-phenyl-2-(4-cyclohexylpiperazine-1-yl)-ethyl]-urea] |
| 30 | O=C(NCC(c1ccccc1)N1CCN(C2CCCCC2)CC1)Nc1cc(C(F)(F)F)cc(C(F)(F)F)c1 (stereo not shown) [Example 115, N-3,5-Bistrifluoromethylphenyl-N'-[2-phenyl-2-(4-cyclohexylpiperazine-1-yl)-ethyl]-urea] |
| 24 | COc1ccccc1C(CNC(=O)Nc1cc(C(F)(F)F)cc(C(F)(F)F)c1)N1CCN(C2CCCCC2)CC1 (stereo not shown) [Example 116, N-3,5-Bistrifluoromethylphenyl-N'-[2-(2-methoxyphenyl)-2-(4-cyclohexylpiperazine-1-yl)-ethyl]-urea] |
| 15 | O=C(NCC(c1ccc(Cl)c(Cl)c1)N1CCN(C2CCCCC2)CC1)Nc1cc(C(F)(F)F)cc(C(F)(F)F)c1 (stereo not shown) [Example 117, N-3,5-Bistrifluoromethylphenyl-N'-[2-(3,4-dichlorophenyl)-2-(4-cyclohexylpiperazine-1-yl)-ethyl]-urea] |
| 36 | COc1ccccc1C(CNC(=O)Nc1cc(C(F)(F)F)cc(C(F)(F)F)c1)N1CCN(C2CCCCCC2)CC1 (stereo not shown) [Example 120, N-3,5-Bistrifluoromethylphenyl-N'-[2-(2-methoxyphenyl)-2-(4-cycloheptylpiperazine-1-yl)-ethyl]-urea] |
| 124 | COc1ccccc1C(CNC(=O)Nc1cc(C(F)(F)F)cc(C(F)(F)F)c1)N1CCN(CCC2CCCCC2)CC1 (stereo not shown) [Example 121, N-3,5-Bistrifluoromethylphenyl-N'-[2-(2-methoxyphenyl)-2-(4-(2-cyclohexylethyl)piperazine-1-yl)-ethyl]-urea] |
| 600 | O=C(NCC(c1ccccc1)N1CCN(c2ccccc2)CC1)Nc1cc(C(F)(F)F)cc(C(F)(F)F)c1 (stereo not shown) [Example 123, N-3,5-Bistrifluoromethylphenyl-N'-[2-phenyl-2-(4-phenylpiperazine-1-yl)-ethyl]-urea] |
| 650 | COc1ccccc1C(CNC(=O)Nc1cc(C(F)(F)F)cc(C(F)(F)F)c1)N1CCN(c2ccccc2)CC1 (stereo not shown) [Example 142] |
| 115 | O=C(NCC(c1ccccc1)N1CCN(Cc2ccccc2)CC1)Nc1cc(C(F)(F)F)cc(C(F)(F)F)c1 (stereo not shown) [Example 146] |
| 190 | COc1ccccc1C(CNC(=O)Nc1cc(C(F)(F)F)cc(C(F)(F)F)c1)N1CCN(Cc2ccccc2)CC1 (stereo not shown) [Example 147] |
| 286 | COc1ccccc1C(CNC(=O)Nc1cc(C(F)(F)F)cc(C(F)(F)F)c1)N1CCN(Cc2ccc3c(c2)OCO3)CC1 (stereo not shown) [Example 148, N-3,5-Bistrifluoromethylphenyl-N'-[2-(2-methoxyphenyl)-2-(3,4-methylenedioxybenzyl-piperazine-1-yl)-ethyl]-urea] |
| 717 | COc1ccccc1C(CNC(=O)Nc1cc(C(F)(F)F)cc(C(F)(F)F)c1)N1CCN(CCc2ccccc2)CC1 (stereo not shown) [Example 150, N-3,5-Bistrifluoromethyl-phenyl-phenyl-N'-[2-(2-methoxyphenyl-2-(4-2-phenylethyl)-piperazine-1-yl)-ethyl]-urea] |
| 215 | COc1ccccc1C(CNC(=O)Nc1cc(C(F)(F)F)cc(C(F)(F)F)c1)N1CCN(C(C)c2ccccc2)CC1 (stereo not shown) [Example 151] |
| 479 | COc1ccccc1C(CNC(=O)Nc1cc(C(F)(F)F)cc(C(F)(F)F)c1)N1CCN(c2ccccn2)CC1 (stereo not shown) [Example 156] |
| 905 | COc1ccccc1C(CNC(=O)Nc1cc(C(F)(F)F)cc(C(F)(F)F)c1)N1CCN(c2ccc3ccccc3n2)CC1 (stereo not shown) [Example 158, N-3,5-Bistrifluoromethylphenyl-N'-[2-(2-methoxyphenyl)-2-(4-(2-quinolinyl)piperazine-1-yl)-ethyl]-urea] |
| 150 | COc1ccccc1C(CNC(=O)Nc1cc(C(F)(F)F)cc(C(F)(F)F)c1)N1CCCCC1 (stereo not shown) [Example 166] |
| 1000 | O=C(NCC(c1ccccc1)N1CCCCC1)Nc1cc(C(F)(F)F)cc(C(F)(F)F)c1 (stereo not shown) [Example 167] |
